Measurements as given in patent US10183936B2, “Hepatitis B core protein allosteric modulators” (priority 2014, dated 2019).

Legend:
[1] = test system: HBV viral production in AD38 cells; test: Viral load production in AD38 cells by quantitative PCR of the HBV core sequence in supernatant; type: cell-based; conditions: 10 μM compound, 6 days at 37° C., viral load in supernatant compared against DMSO control wells; for activity at 10 µM: Hepatitis B virus, 144 h, read-out: AD38 Viral Load (CpAM/DMSO %) at 10 μM
Procedure, shortened: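 AD38 cells seeded at 50,000/well, treated 6 days at 37° C with compound added as 10× solution in 10% DMSO. HBV core sequence in clarified supernatant quantified by TaqMan qPCR against known standards; viral load compared with DMSO control wells.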

AD38 cells = test: Viability of AD38 cells (Promega CellTiter-Glo) at the end of compound treatment; type: cell-based; conditions: 10 μM compound, 6 days, luminescence normalized against DMSO control wells (controls being 100%)
Procedure, shortened: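 AD38 cells seeded at 50,000/well received compound from a 10× solution in 10% DMSO and were incubated 6 days at 37° C. Viability was then read by CellTiter-Glo luminescence in tetracycline-free medium with 2% FBS and 1% DMSO, normalized to DMSO control wells (100%) and reported as percent viability.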

Row | SMILES | activity at 10 µM [1] | AD38 Viability Normalized Result (CPAM/DMSO %) at 10 μM (AD38 cells) | AD38 Viral Load (CpAM/DMSO %) at 10 μM [1]
1 | CC(C)(C)c1ccc([C@@H](CO)NC(=O)c2ccc3c(c2)NC(=O)c2cc(F)ccc2S3)cc1 [Compound 1313] | 17% | 108% | 
2 | O=C(NCc1ccc(-c2cncnc2)cc1)c1ccc2c(c1)NC(=O)c1cc(F)ccc1S2 [Compound 1314] | 69% | 101% | 
3 | O=C(NCc1cnc(-c2ccccc2)nc1)c1ccc2c(c1)NC(=O)c1cc(F)ccc1S2 [Compound 1315] | 4% | 103% | 
4 | O=C(Nc1ccc(F)cc1)c1ccc2c(c1)NC(=O)c1cc(F)ccc1S2 [Compound 1316] | 32% | 89% | 
5 | O=C(Nc1cccc(F)c1)c1ccc2c(c1)NC(=O)c1cc(F)ccc1S2 [Compound 1317] | 50% | 95% | 
6 | O=C(Nc1ccc(F)cc1F)c1ccc2c(c1)NC(=O)c1cc(F)ccc1S2 [Compound 1318] | 14% | 70% | 
7 | O=C(Nc1ccccc1)c1ccc2c(c1)NC(=O)c1cc(F)ccc1S2 [Compound 1319] | 16% | 83% | 
8 | O=C(NCCc1ccc(-c2cncnc2)cc1)c1ccc2c(c1)NC(=O)c1cc(F)ccc1S2 [Compound 1320] | 43% | 93% | 
9 | O=C(Nc1ccc(Cl)cc1)c1ccc2c(c1)NC(=O)c1cc(F)ccc1S2 [Compound 1321] | 15% | 74% | 
10 | O=C(Nc1ccccc1F)c1ccc2c(c1)NC(=O)c1cc(F)ccc1S2 [Compound 1322] | 28% | 94% | 
11 | O=C(Nc1ccc(F)cc1Cl)c1ccc2c(c1)NC(=O)c1cc(F)ccc1S2 [Compound 1323] | 96% | 60% | 
12 | O=C(Nc1cc(F)c(F)c(F)c1)c1ccc2c(c1)NC(=O)c1cc(F)ccc1S2 [Compound 1324] | 10% | 24% | 
13 | O=C(Nc1ccc2ncsc2c1)c1ccc2c(c1)NC(=O)c1cc(F)ccc1S2 [Compound 1325] | 26% | 90% | 
14 | O=C(Nc1ccc(-c2ccccc2)cc1)c1ccc2c(c1)NC(=O)c1cc(F)ccc1S2 [Compound 1326] | 23% | 95% | 
15 | O=C(Nc1cncnc1)c1ccc2c(c1)NC(=O)c1cc(F)ccc1S2 [Compound 1328] | 54% | 105% | 
16 | O=C(Nc1nccs1)c1ccc2c(c1)NC(=O)c1cc(F)ccc1S2 [Compound 1329] | 62% | 109% | 
17 | O=C(Nc1ccncc1)c1ccc2c(c1)NC(=O)c1cc(F)ccc1S2 [Compound 1330] | 41% | 109% | 

Row | SMILES | activity at 10 µM [1] | AD38 Viability Normalized Result (CPAM/DMSO %) at 10 μM (AD38 cells) | AD38 Viral Load (CpAM/DMSO %) at 10 μM [1]
18 | O=C(Nc1ccc2ncoc2c1)c1ccc2c(c1)NC(=O)c1cc(F)ccc1S2 [Compound 1331] | 43% | 88% | 
19 | O=C(Nc1nc2ccc(F)cc2s1)c1ccc2c(c1)NC(=O)c1cc(F)ccc1S2 [Compound 1332] | 70% | 103% | 
20 | O=C(Nc1cccc(-c2ccccc2)c1)c1ccc2c(c1)NC(=O)c1cc(F)ccc1S2 [Compound 1333] | 20% | 73% | 
21 | O=C(Nc1ccc(Cl)cc1F)c1ccc2c(c1)NC(=O)c1cc(F)ccc1S2 [Compound 1334] | 33% | 83% | 
22 | O=C(Nc1cncs1)c1ccc2c(c1)NC(=O)c1cc(F)ccc1S2 [Compound 1335] | 87% | 104% | 
23 | O=C(Nc1ccc(F)cn1)c1ccc2c(c1)NC(=O)c1cc(F)ccc1S2 [Compound 1336] | 70% | 90% | 
24 | O=C(Nc1cncc(F)c1)c1ccc2c(c1)NC(=O)c1cc(F)ccc1S2 [Compound 1337] | 77% | 91% | 
25 | O=C(Nc1ccc(Cl)cn1)c1ccc2c(c1)NC(=O)c1cc(F)ccc1S2 [Compound 1338] | 70% | 118% | 
26 | O=C(Nc1nc2ccccc2s1)c1ccc2c(c1)NC(=O)c1cc(F)ccc1S2 [Compound 1339] | 113% | 70% | 
27 | O=C(Nc1nc2ccc(Cl)cc2s1)c1ccc2c(c1)NC(=O)c1cc(F)ccc1S2 [Compound 1340] | 64% | 116% | 
28 | COC(=O)C(Cc1cncnc1)NC(=O)c1ccc2c(c1)NC(=O)c1cc(F)ccc1S2 (centres unmarked) [Compound 1342, Methyl 2-(2-fluoro-11-oxo-10, 11-dihydrodibenzo [b,f] [1,4]thiazepine-8-carboxamido)-3-(pyrimidin-5-yl) propanoate] |  | 95% | 113%
29 | O=C(NCCc1cnc(-c2ccccc2)nc1)c1ccc2c(c1)NC(=O)c1cc(F)ccc1S2 [Compound 1343] | 8% | 91% | 
30 | O=C(Nc1ccncn1)c1ccc2c(c1)NC(=O)c1cc(F)ccc1S2 [Compound 1344] | 96% | 102% | 
31 | O=C(Nc1cncc(Cl)c1)c1ccc2c(c1)NC(=O)c1cc(F)ccc1S2 [Compound 1345] | 115% | 93% | 
32 | CC(C)(C)OC(=O)C(Cc1cncnc1)NC(=O)c1ccc2c(c1)NC(=O)c1cc(F)ccc1S2 (centres unmarked) [Compound 1346, Tert-Butyl 2-(2-fluoro-11-oxo-10, 11-dihydrodibenzo [b,f] [1,4]thiazepine-8-carboxamido)-3-(pyrimidin-5-yl) propanoate] |  | 97% | 105%
33 | O=C(NCc1cncnc1)c1ccc2c(c1)NC(=O)c1ccc(F)cc1S2 [Compound 1347] | 3% | 94% | 
34 | O=C(NCCc1ccccn1)c1ccc2c(c1)NC(=O)c1ccc(F)cc1S2 [Compound 1348] | 0% | 107% | 
